Measured values from patent US9573926B2, “Amidoalkylenyl and amidoaryl esters, compositions thereof, and methods for their use” (Allergan, Inc., priority 2014, dated 2017).

Assay: Aqueous stability of formulated compound (% remaining over time)
Format: physicochemical
Settings: 0.0005% w/v (5 ppm) in pH 6 buffer contain 1% PS80, n = 1

Row | SMILES | % Remaining (25° C., 14 days) [%] | % Remaining (25° C., 28 days) [%] | % Remaining (40° C., 14 days) [%] | % Remaining (40° C., 28 days) [%] | % Remaining (60° C., 14 days) [%] | % Remaining (60° C., 28 days) [%]
1 | CC(=O)NCCCOC(=O)c1ccc(CCC[C@@H]2[C@@H](CCc3cc(Cl)cc(Cl)c3)[C@H](O)C[C@H]2Cl)s1 [Compound 3, 3-Acetamidopropyl 5-(3-((1R,2R,3R,5R)-5-chloro-2-(3,5-dichlorophenethyl)-3-hydroxycyclopentyl)propyl)thiophene-2-carboxylate] | 99.2 | 103.5 | 99.8 | 100.5 | 99.4 | 98.6
2 | CC(=O)NCCOC(=O)c1ccc(CCC[C@@H]2[C@@H](CCc3cc(Cl)cc(Cl)c3)[C@H](O)C[C@H]2Cl)s1 [Compound 2, 2-Acetamidoethyl 5-(3-((1R,2R,3R,5R)-5-chloro-2-(3,5-dichlorophenethyl)-3-hydroxycyclopentyl)propyl)thiophene-2-carboxylate] | 99.3 | 99.6 | 99.1 | 99.5 | 98.6 | 97.0
